Measurements: ChEMBL document CHEMBL5550182, “Exploring the interaction of N-(benzothiazol-2-yl)pyrrolamide DNA gyrase inhibitors with the GyrB ATP-binding site lipophilic floor: A medicinal chemistry and QTAIM study” (Bioorg Med Chem, 2024)

The compounds below were run against DNA gyrase (Escherichia coli, UniProt P0AES4+P0AES6) (assay: Inhibition of Escherichia coli DNA gyrase supercoiling using relaxed pNO1 as substrate measured after 30 mins by SybrGOLD staining based fluorescence analysis).
Type: protein-complex assay
Cc1[nH]c(C(=O)N(Cc2ccccc2)c2nc3ccc(NC(=O)C(=O)O)cc3s2)c(Cl)c1Cl was tested, and the IC50 was 43 nM.
Work on CC(=O)Nc1ccc2c(c1)s/c(=N\C(=O)c1[nH]c(C)c(Cl)c1Cl)n2CCc1ccccc1 yielded an IC50 of 620 nM.
Work on CC(=O)Nc1ccc2c(c1)s/c(=N\C(=O)c1[nH]c(C)c(Cl)c1Cl)n2Cc1ccc(C(=O)O)cc1 yielded an IC50 of 600 nM.
CC(=O)Nc1ccc2c(c1)s/c(=N\C(=O)c1[nH]c(C)c(Cl)c1Cl)n2Cc1cccc(C(=O)O)c1 was tested, and the IC50 was 100 nM.
Work on CC(=O)Nc1ccc2nc(N(Cc3ccccc3)C(=O)c3[nH]c(C)c(Cl)c3Cl)sc2c1 yielded an IC50 of 90000 nM.
Cc1[nH]c(C(=O)/N=c2\sc3cc(NC(=O)C(=O)O)ccc3n2Cc2ccc(C(=O)O)cc2)c(Cl)c1Cl was tested, and the IC50 was 320 nM.
Work on CC(=O)Nc1ccc2nc(N(Cc3ccc(C(=O)O)cc3)C(=O)c3[nH]c(C)c(Cl)c3Cl)sc2c1 yielded an IC50 of 35000 nM.
Compound CC(=O)Nc1ccc2c(c1)s/c(=N\C(=O)c1[nH]c(C)c(Cl)c1Cl)n2Cc1ccccc1 has an IC50 of 5800 nM.
Cc1[nH]c(C(=O)N(Cc2ccc(C(=O)O)cc2)c2nc3ccc(NC(=O)C(=O)O)cc3s2)c(Cl)c1Cl showed an IC50 of 1000 nM.
For CC(=O)Nc1ccc2nc(N(Cc3cccc(C(=O)O)c3)C(=O)c3[nH]c(C)c(Cl)c3Cl)sc2c1, the IC50 was 54000 nM.
Work on CC(=O)Nc1ccc2nc(N(CCc3ccccc3)C(=O)c3[nH]c(C)c(Cl)c3Cl)sc2c1 yielded an IC50 of 162000 nM.
Cc1[nH]c(C(=O)N(Cc2cccc(C(=O)O)c2)c2nc3ccc(NC(=O)C(=O)O)cc3s2)c(Cl)c1Cl showed an IC50 of 2800 nM.
With Cc1[nH]c(C(=O)/N=c2\sc3cc(NC(=O)C(=O)O)ccc3n2Cc2ccccc2)c(Cl)c1Cl the IC50 was 18 nM.
With Cc1[nH]c(C(=O)/N=c2\sc3cc(NC(=O)C(=O)O)ccc3n2CCc2ccccc2)c(Cl)c1Cl the IC50 was 100 nM.
Compound Cc1[nH]c(C(=O)/N=c2\sc3cc(NC(=O)C(=O)O)ccc3n2Cc2cccc(C(=O)O)c2)c(Cl)c1Cl has an IC50 of 13 nM.
For Cc1[nH]c(C(=O)N(CCc2ccccc2)c2nc3ccc(NC(=O)C(=O)O)cc3s2)c(Cl)c1Cl, the IC50 was 2200 nM.
